Assay results reported in patent publication US7838674B2, “Tetracyclic lactame derivatives” (Novartis AG, priority 2007, dated 2010).
Where a name gives a salt, the structure may show the parent alone.

Molecular target: T1, MAPKAPK2 enzyme (HIS-MK2, Invitrogen PV4019) (Homo sapiens, UniProt P49137)
T1 construct: His; purchased Invitrogen PV4019
Test: Alternative MAPKAPK2 assay (Caliper microfluidic mobility shift, HSP27-peptide)
Format: biochemical
Settings: HIS-MK2 0.013 nM, ATP 10 μM, 60 min at 30° C.

T1 sequence (P49137 whole entry): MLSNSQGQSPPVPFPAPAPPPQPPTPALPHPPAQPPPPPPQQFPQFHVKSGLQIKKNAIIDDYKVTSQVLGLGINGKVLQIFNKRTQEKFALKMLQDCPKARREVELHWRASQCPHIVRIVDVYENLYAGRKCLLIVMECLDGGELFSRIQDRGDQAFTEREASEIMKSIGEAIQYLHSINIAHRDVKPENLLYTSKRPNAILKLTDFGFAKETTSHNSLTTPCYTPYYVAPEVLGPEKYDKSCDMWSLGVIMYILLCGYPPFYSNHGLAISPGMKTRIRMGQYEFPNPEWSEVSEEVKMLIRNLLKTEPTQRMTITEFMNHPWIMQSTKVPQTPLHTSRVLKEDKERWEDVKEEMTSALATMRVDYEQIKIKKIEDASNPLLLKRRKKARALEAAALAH

Structure (SMILES)	IC50 [nM]
CN1CC2(CNC(=O)c3c4c(n(C)c32)-c2cc(-c3cccc(Cl)c3)ncc2CC4)C1 [Example 190, 2-[3-Aminomethyl-1-methyl-azetidin-3-yl]-8-(3-chloro-phenyl)-1-methyl-4,5-dihydro-1H-pyrrolo[2,3-f]isoquinoline-3-carboxylic acid lactam]	7
CC(C)Oc1ccc(-c2cc3c(cn2)CCc2c4c(n(C)c2-3)C2(CNC4=O)CN(C)C2)cn1 [Example 183, 2-(3-Aminomethyl-1-methyl-azetidin-3-yl)-8-(6-isopropoxy-pyridin-3-yl)-1-methyl-4,5-dihydro-1H-pyrrolo[2,3-f]isoquinoline-3-carboxylic acid lactam]	9
COc1ncc(-c2cc3c(cn2)CCc2c-3[nH]c3c2C(=O)NC2(CC2)C32CC2)cc1F [Example 194, 2-(1′-Amino-bicyclopropyl-1-yl)-8-(5-fluoro-6-methoxy-pyridin-3-yl)-4,5-dihydro-1H-pyrrolo[2,3-f]isoquinoline-3-carboxylic acid lactam]	42
C#Cc1cc(-c2cc3c(cn2)CCc2c-3[nH]c3c2C(=O)NC2(CC2)C3)ccc1OC [Example 75, 2-(1-Amino-cyclopropylmethyl)-8-(3-ethynyl-4-methoxy-phenyl)-4,5-dihydro-1H-pyrrolo[2,3-f]isoquinoline-3-carboxylic acid lactam]	98
CC(C)(O)C#Cc1ccc(-c2cc3c(cn2)CCc2c-3[nH]c3c2C(=O)NCC32CC2)cc1 [Example 119]	89
CC(C)Oc1ccc(-c2cc3c(cn2)CCc2c4c(n(C)c2-3)C2(CNC2)CNC4=O)cn1 [Example 184, 2-(3-Aminomethyl-azetidin-3-yl)-8-(6-isopropoxy-pyridin-3-yl)-1-methyl-4,5-dihydro-1H-pyrrolo[2,3-f]isoquinoline-3-carboxylic acid lactam hydrochloride]	9
CN1CC2(CNC(=O)c3c4c(n(C)c32)-c2cc(-c3ccc(F)nc3)ncc2CC4)C1 [Example 161, 2-(3-Aminomethyl-1-methyl-azetidin-3-yl)-8-(6-fluoro-pyridin-3-yl)-1-methyl-4,5-dihydro-1H-pyrrolo[2,3-f]isoquinoline-3-carboxylic acid lactam]	86
COc1ccc(-c2cc3c(cn2)CCc2c4c(n(C)c2-3)CC2(CNC2)NC4=O)cc1OC [Example 144, 2-3-Amino-azetidin-3-ylmethyl)-8-(3,4-dimethoxy-phenyl)-1-methyl-4,5-dihydro-1H-pyrrolo[2,3-f]isoquinoline-3-carboxylic acid lactam hydrochloride]	58
COc1cncc(-c2cc3c(cn2)CCc2c4c(n(C)c2-3)CC2(CNC2)NC4=O)c1 [Example 140, 2-(3-Amino-azetidin-3-ylmethyl)-8-(5-methoxy-pyridin-3-yl)-1-methyl-4,5-dihydro-1H-pyrrolo[2,3-f]isoquinoline-3-carboxylic acid lactam hydrochloride]	12
Cn1c2c(c3c1-c1cc(-c4ccncc4)ncc1CC3)C(=O)NC1(CNC1)C2 [Example 152, 2-(3-Amino-azetidin-3-ylmethyl)-8-(pyridin-4-yl)-1-methyl-4,5-dihydro-1H-pyrrolo[2,3-f]isoquinoline-3-carboxylic acid lactam hydrochloride]	15
O=C1NC2(CCC2)Cc2[nH]c3c(c21)CCc1cnc(-c2cccnc2)cc1-3 [Example 104, 2-(1-Amino-cyclobutylmethyl)-8-pyridin-3-yl-4,5-dihydro-1H-pyrrolo[2,3-f]isoquinoline-3-carboxylic acid lactam]	67
CC(C)(N)C#Cc1ccc(-c2cc3c(cn2)CCc2c-3[nH]c3c2C(=O)NC2(CC2)C3)cc1 [Example 82, 2-(1-Amino-cyclopropylmethyl)-8-[4-(3-amino-3-methyl-but-1-ynyl)-phenyl]-4,5-dihydro-1H-pyrrolo[2,3-f]isoquinoline-3-carboxylic acid lactam]	24
N#Cc1ccc(-c2cc3c(cn2)CCc2c-3[nH]c3c2C(=O)NC2(CC2)C3)cc1 [Example 60, 2-(1-Amino-cyclopropylmethyl)-8-(4-cyano-phenyl)-4,5-dihydro-1H-pyrrolo[2,3-f]isoquinoline-3-carboxylic acid lactam]	75
COc1ccc(-c2cc3c(cn2)CCc2c4c(n(C)c2-3)CC2(CNC2)NC4=O)cn1 [Example 141, 2-(3-Amino-azetidin-3-ylmethyl)-8-(6-methoxy-pyridin-3-yl)-1-methyl-4,5-dihydro-1H-pyrrolo[2,3-f]isoquinoline-3-carboxylic acid lactam hydrochloride]	17

Other lines, results leading:

IC50 [nM]	Structure (SMILES)
15	O=C1NCC2(CNC2)c2[nH]c3c(c21)CCc1cnc(-c2ccc(CN4CCOCC4)c(F)c2)nc1-3 [Example 326, 2-(3-Aminomethyl-azetidin-3-yl)-8-(3-fluoro-4-morpholin-4-ylmethyl-phenyl)-4,5-dihydro-1H-1,7,9-triaza-cyclopenta[a]naphthalene-3-carboxylic acid lactam]
6	O=C1NCC2(CNC2)c2[nH]c3c(c21)CCc1cnc(-c2ccc(N4CCOCC4)nc2)nc1-3 [Example 329, 2-(3-Aminomethyl-azetidin-3-yl)-8-(6-morpholin-4-yl-pyridin-3-yl)-4,5-dihydro-1H-1,7,9-triaza-cyclopenta[a]naphthalene-3-carboxylic acid lactam]
6	CN(C)C1CCN(c2ccc(-c3cc4c(cn3)CCc3c-4[nH]c4c3C(=O)NCC43CC3)cc2C#N)C1 (stereo not drawn) [Example 318, 2-(3-Dimethylamino-pyrrolidin-1-yl)-10-spirocyclopropyl-5-(7-oxo-6,7,8,9,10,11-hexahydro-5H-3,8,11-triaza-benzo[a]fluoren-2-yl)-benzonitrile]
< 3	CN1CC2(C1)c1[nH]c3c(c1C(=O)NC21CC1)CCc1cnc(-c2ccccc2F)cc1-3 [Example 256, 2-[3-(1-Amino-cyclopropyl)-1-methyl-azetidin-3-yl]-8-(2-fluoro-phenyl)-4,5-dihydro-1H-pyrrolo[2,3-f]isoquinoline-3-carboxylic acid lactam]
< 3	O=C1NC2(CC2)C2(CNC2)c2[nH]c3c(c21)CCc1cnc(-c2ccc(C(F)(F)F)nc2)cc1-3 [Example 211, 2-[3-(1-Amino-cyclopropyl)-azetidin-3-yl]-8-(6-trifluoromethyl-pyridin-3-yl)-4,5-dihydro-1H-pyrrolo[2,3-f]isoquinoline-3-carboxylic acid lactam hydrochloride]
< 3	CN1CC2(C1)c1[nH]c3c(c1C(=O)NC21CC1)CCc1cnc(-c2ccc(F)nc2)cc1-3 [Example 223, 2-[3-(1-Amino-cyclopropyl)-1-methyl-azetidin-3-yl]-8-(6-fluoro-pyridin-3-yl)-4,5-dihydro-1H-pyrrolo[2,3-f]isoquinoline-3-carboxylic acid lactam]
< 3	CN1CC2(C1)c1[nH]c3c(c1C(=O)NC21CC1)CCc1cnc(-c2ccc(OCCN4CCOCC4)cc2)cc1-3 [Example 259, 2-[3-(1-Amino-cyclopropyl)-1-methyl-azetidin-3-yl]-8-[4-(2-morpholin-4-yl-ethoxy)-phenyl]-4,5-dihydro-1H-pyrrolo[2,3-f]isoquinoline-3-carboxylic acid lactam]
